The text below walks through data of patent US20130123355A1, “Fatty acids and metal ions compositions and uses thereof” (priority 2011, published 2013).

Assay [1] has as its system rats. As to the kind of experiment: novel-object-location (NOL) tests. To be noted: diet. It is filed as in vivo. The procedure:
Mg-DHA composition is provided as supplement in standard rat feed. On an average, rats consume about 50 mg/Kg/day of elemental Mg, on a feeding schedule so as to maintain 85% of its free-feeding weight. In the control group, rats are fed either DHA or magnesium citrate (Mg Citrate) supplemented diet on schedule similar to test group. After habituation to the apparatus and pre-training, each rat undergoes 4 trials of standard T-maze test (Shoji et al, J. Vis. Exp. (60), e3300, DOI: 10.3791/3300 (2012)) on day 1 or day 21 of Mg-DHA, Mg Citrate, or DHA feeding. Rats are subject to either forced alternation task or left-right discrimination task. Behaviors in the T-maze apparatus is recorded and statistically analyzed by two way repeated measures analysis of variance. […] In another set of experiments, rats fed with DHA, Mg Citrate, or Mg-DHA for 21 days are subject to novel-object-location (NOL) tests.
Mg-DHA composition is provided as supplement in standard rat feed. On an average, rats consume about 50 mg/Kg/day of elemental Mg, on a feeding schedule so as to maintain 85% of its free-feeding weight. In the control group, rats are fed DHA-LysoPC or Mg Citrate supplemented diet on schedule similar to test group. After habituation to the apparatus and pre-training, each rat undergoes 4 trials of standard T-maze test (Shoji et al, J. Vis. Exp. (60), e3300, DOI: 10.3791/3300 (2012)) on day 1 or day 21 of Mg-DHA-LysoPC, Mg Citrate or DHA-LysoPC feeding. Rats are subjected to either forced alternation task or left-right discrimination task. Behaviors in the T-maze apparatus is recorded and statistically analyzed by two way repeated measures analysis of variance. […] In another set of experiments, rats fed with Mg Citrate, DHA-LysoPC, or Mg-DHA-LysoPC for 21 days are subjected to novel-object-location (NOL) tests.
Mg-EPA composition is provided as supplement in standard rat feed. On an average, rats consume about 50 mg/Kg/day of elemental Mg, on a feeding schedule so as to maintain 85% of its free-feeding weight. In the control group, rats are fed EPA or Mg Citrate supplemented diet on scheduled similar to test group. After habituation to the apparatus and pre-training, each rat undergoes 4 trials of standard T-maze test (Shoji et al, J. Vis. Exp. (60), e3300, DOI: 10.3791/3300 (2012)) on day 1 or day 21 of Mg-EPA, Mg Citrate, or EPA feeding. Rats are subjected to either forced alternation task or left-right discrimination task. Behaviors in the T-maze apparatus is recorded and statistically analyzed by two way repeated measures analysis of variance. […]
Zn-DHA composition is provided as supplement in standard rat feed. […] Behaviors in the T-maze apparatus is recorded and statistically analyzed by two way repeated measures analysis of variance. […]

The subject of assay [2] is Sprague-Dawley rats. As to the kind of experiment: Forced Swim Test. It is filed as in vivo. To be noted: diet. The source says:
Sprague-Dawley rats are fed diet supplemented with Mg-DHA, Mg Citrate, or DHA. […] Various established parameters of antidepressant activity including reduced immobility time, increased swimming, and increased climbing behavior are quantitated to assess the antidepressant activity.
Sprague-Dawley rats are fed diet supplemented with Mg-DHA-LysoPC, Mg Citrate, or DHA-lysoPC. […] Various established parameters of antidepressant activity including reduced immobility time, increased swimming, and increased climbing behavior are quantitated to assess the antidepressant activity.
Sprague-Dawley rats are fed diet supplemented with Mg-EPA, Mg Citrate, or EPA. […] Various established parameters of antidepressant activity including reduced immobility time, increased swimming, and increased climbing behavior are quantitated to assess the antidepressant activity.
Sprague-Dawley rats are fed diet supplemented with Zn-DHA, Zinc gluconate, or DHA. On Zn-DHA or Zinc gluconate supplemented diet, rats consume about 1 mg/kg body weight/day of elemental zinc, on a feeding schedule so as to maintain 85% of its free-feeding weight. […] Various established parameters of antidepressant activity including reduced immobility time, increased swimming, and increased climbing behavior are quantitated to assess the antidepressant activity.
Sprague-Dawley rats are fed diet supplemented with Zn-DHA-lysoPC, zinc gluconate, or DHA. On Zn-DHA-lysoPC or zinc gluconate supplemented diet, rats consume about 1 mg/kg body weight/day of elemental zinc, on a feeding schedule so as to maintain 85% of its free-feeding weight. […] Various established parameters of antidepressant activity including reduced immobility time, increased swimming, and increased climbing behavior are quantitated to assess the antidepressant activity.
Sprague-Dawley rats are fed diet supplemented with Zn-EPA, zinc gluconate, or EPA. On Zn-EPA or zinc gluconate supplemented diet, rats consume about 1 mg/kg body weight/day of elemental zinc, on a feeding schedule so as to maintain 85% of its free-feeding weight. […] Various established parameters of antidepressant activity including reduced immobility time, increased swimming, and increased climbing behavior are quantitated to assess the antidepressant activity.
Sprague-Dawley rats are fed diet supplemented with Li-DHA, lithium carbonate, or DHA. […] Various established parameters of antidepressant activity including reduced immobility time, increased swimming, and increased climbing behavior are quantitated to assess the antidepressant activity.
Sprague-Dawley rats are fed diet supplemented with Li-DHA-lysoPC, lithium carbonate, or DHA. […] Various established parameters of antidepressant activity including reduced immobility time, increased swimming, and increased climbing behavior are quantitated to assess the antidepressant activity.
Sprague-Dawley rats are fed diet supplemented with Li-EPA, lithium carbonate, or EPA. […] Various established parameters of antidepressant activity including reduced immobility time, increased swimming, and increased climbing behavior are quantitated to assess the antidepressant activity.

[3] abbreviates: about 50 mg/Kg/day elemental Mg for 21 days, compared with the fatty acid alone or Mg Citrate.
The mark [4] stands for this setting: about 50 mg/kg/day elemental Mg, compared with the fatty acid alone or Mg Citrate.
Where [5] appears, read: about 1 mg/kg/day elemental Zn for 21 days, compared with the fatty acid alone or zinc gluconate.
Where [6] appears, read: about 1 mg/kg body weight/day elemental zinc, compared with the fatty acid alone or zinc gluconate.

With `CC/C=C\C/C=C\C/C=C\C/C=C\C/C=C\C/C=C\CCC(=O)[O-].CC/C=C\C/C=C\C/C=C\C/C=C\C/C=C\C/C=C\CCC(=O)[O-].[Mg+2]` [Mg-DHA], the “ability to recognize novel objects” value in assay [1] (setting [3]) is “statistically significant improvement”. In addition, in assay [2] (setting [4]), the immobility time result is on record as “reduction”; the “swimming and climbing behavior” value was “significant increase”.

Regarding `CC/C=C\C/C=C\C/C=C\C/C=C\C/C=C\CCCC(=O)[O-].CC/C=C\C/C=C\C/C=C\C/C=C\C/C=C\CCCC(=O)[O-].[Mg+2]` [Mg-EPA], in assay [1] (setting [3]), the “ability to recognize novel objects” value is reported as “statistically significant improvement”. Besides, in assay [2] (setting [4]), the immobility time result was “reduction”; the “swimming and climbing behavior” value is on record as “significant increase”.

With `CC/C=C\C/C=C\C/C=C\C/C=C\C/C=C\C/C=C\CCC(=O)[O-].CC/C=C\C/C=C\C/C=C\C/C=C\C/C=C\C/C=C\CCC(=O)[O-].[Zn+2]` [Zn-DHA], the “ability to recognize novel objects” value in assay [1] (setting [5]) is recorded as “statistically significant improvement”. In addition, in assay [2] (setting [6]), the immobility time entry is recorded as “reduction”; the “swimming and climbing behavior” value is “significant increase”.

`CC/C=C\C/C=C\C/C=C\C/C=C\C/C=C\CCCC(=O)[O-].CC/C=C\C/C=C\C/C=C\C/C=C\C/C=C\CCCC(=O)[O-].[Zn+2]` [Zn-EPA]: in assay [1] (setting [5]), the “ability to recognize novel objects” value was “statistically significant improvement”. For the same compound, in assay [2] (setting [6]), the immobility time result is “reduction”; the “swimming and climbing behavior” value is “significant increase”.
